Results: US20210040533A1, “METHOD FOR IDENTIFYING TARGET GENE OF TEST SUBSTANCE” (DRUG GENOMICS, LTD., priority 2018, published 2021)

Tested on: CBS138 strain (wild strain)
Experiment: Determination of 50% inhibitory concentration of antifungal drug on wild strain (turbidity at OD 600)
Format: cell-based, Candida glabrata
Conditions: Nakaseomyces glabratus, SD medium, 30° C., 20 hours, turbidity at OD 600 decreased to about 50%

Row | Compound | IC50
1 | OC(Cn1cncn1)(Cn1cncn1)c1ccc(F)cc1F [fluconazole] | 50 µM
2 | CN(C/C=C/C#CC(C)(C)C)Cc1cccc2ccccc12 [terbinafine] | 48 µM
